{"source": "ChEMBL document CHEMBL5365473", "about": "“Novel Sulfonylurea-Based NLRP3 Inflammasome Inhibitor for Efficient Treatment of Nonalcoholic Steatohepatitis, Endotoxic Shock, and Colitis” (J Med Chem, 2023)", "key": {"[1]": {"assay": "Effect on immune cell numbers in MCS diet-fed C57BL/6 mouse assessed as effect on F4/80 expression at 40 mg/kg, po administered via gavage for 5 weeks by immunofluorescence staining based analysis", "type": "toxicity, organism-based", "settings": "in vivo, 840 h"}, "Mus musculus [2]": {"tested_on": "Mus musculus", "assay": "Antiinflammatory activity against MCD diet-induced NASH C57BL/6 mouse model assessed as reduction in liver fibrosis at 40 mg/kg, po administered via gavage for 5 weeks by Masson's trichrome staining based analysis", "type": "functional, organism-based"}, "Mus musculus [3]": {"tested_on": "Mus musculus", "assay": "Antiinflammatory activity against MCD diet-induced NASH C57BL/6 mouse model assessed as reduction in liver fibrosis at 40 mg/kg, po administered via gavage for 5 weeks by Sirius red staining based analysis", "type": "functional, organism-based"}, "Mus musculus [4]": {"tested_on": "Mus musculus", "assay": "Antiinflammatory activity against MCD diet-induced NASH C57BL/6 mouse model assessed as reduction in liver steatosis at 40 mg/kg, po administered via gavage for 5 weeks by Sirius red staining based analysis", "type": "functional, organism-based"}, "[5]": {"molecular_target": "NACHT, LRR and PYD domains-containing protein 3 (Mus musculus, UniProt Q8R4B8)", "sequence (Q8R4B8 whole entry, the tested form may be a part)": "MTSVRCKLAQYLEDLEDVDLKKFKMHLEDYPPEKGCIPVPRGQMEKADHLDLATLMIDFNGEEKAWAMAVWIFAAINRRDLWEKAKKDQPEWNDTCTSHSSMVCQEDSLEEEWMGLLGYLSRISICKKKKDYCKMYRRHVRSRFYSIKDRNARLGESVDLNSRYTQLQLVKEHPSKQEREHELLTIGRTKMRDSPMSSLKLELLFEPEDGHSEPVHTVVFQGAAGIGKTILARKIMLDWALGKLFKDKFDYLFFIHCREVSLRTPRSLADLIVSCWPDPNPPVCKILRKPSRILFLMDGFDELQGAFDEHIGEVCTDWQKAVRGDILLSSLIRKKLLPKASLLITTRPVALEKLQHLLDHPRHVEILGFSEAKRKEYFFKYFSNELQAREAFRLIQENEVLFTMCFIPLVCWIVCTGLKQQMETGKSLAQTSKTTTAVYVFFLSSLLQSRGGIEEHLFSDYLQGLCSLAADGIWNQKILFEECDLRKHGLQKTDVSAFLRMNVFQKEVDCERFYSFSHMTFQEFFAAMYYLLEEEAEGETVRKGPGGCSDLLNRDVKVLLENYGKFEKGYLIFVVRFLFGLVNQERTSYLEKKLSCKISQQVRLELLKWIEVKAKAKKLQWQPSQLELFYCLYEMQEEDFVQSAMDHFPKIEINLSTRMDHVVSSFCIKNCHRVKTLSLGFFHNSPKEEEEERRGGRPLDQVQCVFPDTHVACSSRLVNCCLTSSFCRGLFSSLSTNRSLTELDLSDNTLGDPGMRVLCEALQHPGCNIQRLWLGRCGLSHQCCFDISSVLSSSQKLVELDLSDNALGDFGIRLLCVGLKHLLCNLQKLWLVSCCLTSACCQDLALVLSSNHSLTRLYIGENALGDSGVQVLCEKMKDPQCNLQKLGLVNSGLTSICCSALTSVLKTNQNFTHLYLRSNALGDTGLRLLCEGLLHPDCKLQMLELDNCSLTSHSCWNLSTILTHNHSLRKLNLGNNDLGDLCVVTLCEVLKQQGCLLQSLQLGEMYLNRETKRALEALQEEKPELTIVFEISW", "assay": "Inhibition of NLRP3 inflammasome in mouse […] cells assessed as inhibition of LPS/ATP-induced IL-1 beta secretion primed with LPS for 4.5 hs followed by incubation with compound for 30 mins and later stimulation with ATP for 30 mins by ELISA", "type": "cell-based, J774.A1"}, "L02": {"tested_on": "L02", "assay": "Cytotoxicity against human HL7702 cells assessed as reduction in cell viability at 500 uM measured after 24 hrs by CCK8 assay", "type": "toxicity, cell-based", "settings": "l02, 24 h"}, "[6]": {"assay": "Toxicity against female ICR mouse assessed as effect on body weight at 200 to 500 mg/kg administered via gavage for 12 days", "type": "organism-based", "settings": "in vivo, po, 288 h, dose 200-500 mg/kg, time 12 day"}, "[7]": {"assay": "Toxicity against female ICR mouse assessed as effect on heart weight at 200 to 500 mg/kg administered via gavage for 12 days", "type": "organism-based", "settings": "in vivo, po, 288 h, dose 200-500 mg/kg, time 12 day"}, "[8]": {"assay": "Toxicity against female ICR mouse assessed as effect on spleen weight at 200 to 500 mg/kg administered via gavage for 12 days", "type": "organism-based", "settings": "in vivo, po, 288 h, dose 200-500 mg/kg, time 12 day"}, "[9]": {"assay": "Toxicity against female ICR mouse assessed as effect on kidney weight at 200 to 500 mg/kg administered via gavage for 12 days", "type": "organism-based", "settings": "in vivo, po, 288 h, dose 200-500 mg/kg, time 12 day"}, "[10]": {"assay": "Toxicity against male ICR mouse assessed as effect on brain weight at 200 to 500 mg/kg administered via gavage for 12 days", "type": "organism-based", "settings": "in vivo, po, 288 h, dose 200-500 mg/kg, time 12 day"}, "[11]": {"assay": "Toxicity against male ICR mouse assessed as effect on kidney weight at 200 to 500 mg/kg administered via gavage for 12 days", "type": "organism-based", "settings": "in vivo, po, 288 h, dose 200-500 mg/kg, time 12 day"}, "[12]": {"assay": "Toxicity against female ICR mouse assessed as effect on ratio of plasma AST to ALT level at 200 to 500 mg/kg administered via gavage for 12 days", "type": "organism-based", "settings": "in vivo, po, 288 h, dose 200-500 mg/kg, time 12 day"}, "[13]": {"assay": "Toxicity against female ICR mouse assessed as effect on plasma creatinine level at 200 to 500 mg/kg administered via gavage for 12 days", "type": "organism-based", "settings": "in vivo, po, 288 h, dose 200-500 mg/kg, time 12 day"}, "[14]": {"assay": "Toxicity against male ICR mouse assessed as effect on plasma AST level at 200 to 500 mg/kg administered via gavage for 12 days", "type": "organism-based", "settings": "in vivo, po, 288 h, dose 200-500 mg/kg, time 12 day"}, "[15]": {"assay": "Toxicity against male ICR mouse assessed as effect on plasma ALT level at 200 to 500 mg/kg administered via gavage for 12 days", "type": "organism-based", "settings": "in vivo, po, 288 h, dose 200-500 mg/kg, time 12 day"}, "[16]": {"molecular_target": "NACHT, LRR and PYD domains-containing protein 3 (Mus musculus) (UniProt Q8R4B8)", "sequence (Q8R4B8 whole entry, the tested form may be a part)": "as above", "assay": "Inhibition of NLRP3 inflammasome in mouse J774.A1 cells assessed as inhibition of caspase-1 activation primed with LPS for 4.5 hrs followed by incubation with compound for 2.5 hrs and later stimulated with ATP for 30 mins by immunoblot analysis", "type": "cell-based", "settings": "dose 3-30 nM, time 3.0 hrs"}, "[17]": {"molecular_target": "NLR family CARD domain-containing protein 4 (Mus musculus) (UniProt Q3UP24)", "sequence (Q3UP24 whole entry, the tested form may be a part)": "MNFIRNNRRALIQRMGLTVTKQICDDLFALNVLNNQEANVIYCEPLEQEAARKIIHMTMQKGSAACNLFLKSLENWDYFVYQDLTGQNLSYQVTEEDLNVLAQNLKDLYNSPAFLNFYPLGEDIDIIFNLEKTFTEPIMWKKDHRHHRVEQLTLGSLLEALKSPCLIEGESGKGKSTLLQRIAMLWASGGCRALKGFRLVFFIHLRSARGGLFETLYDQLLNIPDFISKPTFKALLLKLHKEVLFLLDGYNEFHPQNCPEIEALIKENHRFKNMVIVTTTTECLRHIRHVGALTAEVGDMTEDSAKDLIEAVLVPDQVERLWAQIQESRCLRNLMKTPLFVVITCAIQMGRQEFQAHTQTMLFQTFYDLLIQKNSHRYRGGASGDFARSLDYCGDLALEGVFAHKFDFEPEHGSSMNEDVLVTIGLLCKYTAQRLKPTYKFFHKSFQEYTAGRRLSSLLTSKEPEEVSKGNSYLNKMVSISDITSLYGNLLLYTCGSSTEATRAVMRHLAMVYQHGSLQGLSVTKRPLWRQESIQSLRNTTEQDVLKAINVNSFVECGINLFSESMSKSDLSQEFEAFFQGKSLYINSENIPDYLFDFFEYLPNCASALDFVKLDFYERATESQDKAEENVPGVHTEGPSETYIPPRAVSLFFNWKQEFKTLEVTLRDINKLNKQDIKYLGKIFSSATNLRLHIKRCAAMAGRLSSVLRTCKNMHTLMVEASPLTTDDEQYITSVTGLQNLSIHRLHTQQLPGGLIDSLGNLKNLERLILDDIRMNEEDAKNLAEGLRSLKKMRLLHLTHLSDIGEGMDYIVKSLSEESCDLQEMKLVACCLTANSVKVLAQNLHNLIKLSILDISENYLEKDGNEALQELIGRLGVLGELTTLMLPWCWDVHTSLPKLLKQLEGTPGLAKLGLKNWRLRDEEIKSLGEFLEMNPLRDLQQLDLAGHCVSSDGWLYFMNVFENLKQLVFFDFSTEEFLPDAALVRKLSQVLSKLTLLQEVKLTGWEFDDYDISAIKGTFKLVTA", "assay": "Inhibition of NLRC4 inflammasome in mouse J774.A1 cells assessed as inhibition of caspase-1 activation at 30 nM primed with LPS for 4.5 hrs followed by incubation with compound for 24 hrs and later stimulated with flagellin for 24 hrs by immunoblot analysis", "type": "cell-based", "settings": "time 48.0 hrs"}, "THP-1": {"tested_on": "THP-1", "assay": "Effect on mitochondrial function in PMA-induced differentiated human THP-1 cells assessed as effect on extracellular ATP-induced decrease in mitochondrial membrane potential at 30 nM pretreated with compound for 24 hrs followed by stimulation with LPS for 4.5 hrs and ATP for 1 hr by MitoTracker red dye based confocal microscopy", "type": "functional, cell-based", "settings": "time 29.5 hrs"}, "[18]": {"assay": "AUC (0 to infinity) in ICR mouse at 5 mg/kg, iv by LC-MS/MS analysis", "type": "ADME, organism-based", "set-up": "dose 5 mg/kg, route iv", "settings": "in vivo"}, "[19]": {"assay": "MRT (0 to infinity) in ICR mouse at 5 mg/kg, iv by LC-MS/MS analysis", "type": "ADME, organism-based", "settings": "in vivo"}, "[20]": {"assay": "Clearance in ICR mouse at 5 mg/kg, iv by LC-MS/MS analysis", "type": "ADME, organism-based", "settings": "in vivo"}, "[21]": {"assay": "AUC (0 to infinity) in ICR mouse at 10 mg/kg, po by LC-MS/MS analysis", "type": "ADME, organism-based", "set-up": "dose 10 mg/kg, route po", "settings": "in vivo"}, "[22]": {"assay": "Drug uptake in Sprague-Dawley rat liver at 50 mg/kg, po measured for 24 hrs by LC-MS/MS analysis", "type": "ADME, organism-based", "settings": "in vivo"}, "[23]": {"assay": "Drug uptake in Sprague-Dawley rat heart at 50 mg/kg, po measured for 24 hrs by LC-MS/MS analysis", "type": "ADME, organism-based", "settings": "in vivo"}, "[24]": {"assay": "Drug uptake in Sprague-Dawley rat adipose tissue at 50 mg/kg, po measured for 24 hrs by LC-MS/MS analysis", "type": "ADME, organism-based", "settings": "in vivo"}, "[25]": {"assay": "Drug uptake in Sprague-Dawley rat spleen at 50 mg/kg, po measured for 24 hrs by LC-MS/MS analysis", "type": "ADME, organism-based", "settings": "in vivo"}, "Mus musculus [26]": {"tested_on": "Mus musculus", "assay": "Antiinflammatory activity against MCD diet-induced NASH C57BL/6 mouse model assessed as reduction in balloon dilatation in liver at 40 mg/kg, po administered via gavage for 5 weeks by H and E staining based analysis", "type": "functional, organism-based"}, "Mus musculus [27]": {"tested_on": "Mus musculus", "assay": "Antiinflammatory activity against MCD diet-induced NASH C57BL/6 mouse model assessed as reduction in liver fibrosis at 40 mg/kg, po administered via gavage for 5 weeks by H and E staining based analysis", "type": "functional, organism-based"}, "Mus musculus [28]": {"tested_on": "Mus musculus", "assay": "Antiinflammatory activity against MCD diet-induced NASH C57BL/6 mouse model assessed as improvement in liver morphology at 40 mg/kg, po administered via gavage for 5 weeks by Sirius red staining based analysis", "type": "functional, organism-based"}, "Mus musculus [29]": {"tested_on": "Mus musculus", "assay": "Antiinflammatory activity against MCD diet-induced NASH C57BL/6 mouse model assessed as reduction in TUNEL-positive hepatic cells at 40 mg/kg, po administered via gavage for 5 weeks by TUNEL assay", "type": "functional, organism-based"}, "Mus musculus [30]": {"tested_on": "Mus musculus", "assay": "Antiinflammatory activity against LPS-induced lethal septic shock C57BL/6 mouse model assessed as reduction in serum IL-1 beta level at 20 to 40 mg/kg, ip administered for 1 hr prior to LPS challenge and measured after 2.5 hrs by ELISA", "type": "functional, organism-based", "settings": "dose 20-40 mg/kg, time 3.5 hrs"}, "Mus musculus [31]": {"tested_on": "Mus musculus", "assay": "Antiinflammatory activity against DSS-induced ulcerative colitis C57BL/6 mouse assessed as reduction in body weight loss at 10 mg/kg, ip administered for 9 days and measured daily", "type": "functional, organism-based", "settings": "time 9.0 day"}, "Mus musculus [32]": {"tested_on": "Mus musculus", "assay": "Antiinflammatory activity against DSS-induced ulcerative colitis C57BL/6 mouse assessed as reduction in colon length shortening at 10 mg/kg, ip administered for 9 days and measured on day 10", "type": "functional, organism-based", "settings": "time 10.0 day"}, "Mus musculus [33]": {"tested_on": "Mus musculus", "assay": "Antiinflammatory activity against DSS-induced ulcerative colitis C57BL/6 mouse assessed as reduction in massive loss of goblet cells in colon at 10 mg/kg, ip administered for 9 days and measured on day 10 by H and E staining based analysis", "type": "functional, organism-based", "settings": "time 10.0 day"}}, "note": "pIC50: −log10 of the molar value. Activity calls are given as the source filed them. No cut-off for these calls is given here."}
{"smiles": "CN(C)Cc1ccc(S(=O)(=O)NC(=O)Nc2c3c(cc4c2CCC4)CCC3)cc1", "values": [{"measurement": "Activity", "setting": "[1]", "result": "Non-Toxic"}, {"measurement": "Activity", "setting": "Mus musculus [2]", "result": "Active"}, {"measurement": "Activity", "setting": "Mus musculus [3]", "result": "Active"}, {"measurement": "Activity", "setting": "Mus musculus [4]", "result": "Active"}, {"measurement": "pIC50", "setting": "[5]", "result": 7.60}, {"measurement": "Activity", "setting": "L02", "result": "Non-Toxic"}, {"measurement": "Activity", "setting": "[6]", "result": "Non-Toxic"}, {"measurement": "Activity", "setting": "[7]", "result": "Non-Toxic"}, {"measurement": "Activity", "setting": "[8]", "result": "Non-Toxic"}, {"measurement": "Activity", "setting": "[9]", "result": "Non-Toxic"}, {"measurement": "Activity", "setting": "[10]", "result": "Non-Toxic"}, {"measurement": "Activity", "setting": "[11]", "result": "Non-Toxic"}, {"measurement": "Activity", "setting": "[12]", "result": "Non-Toxic"}, {"measurement": "Activity", "setting": "[13]", "result": "Non-Toxic"}, {"measurement": "Activity", "setting": "[14]", "result": "Non-Toxic"}, {"measurement": "Activity", "setting": "[15]", "result": "Non-Toxic"}, {"measurement": "inhibition", "setting": "[16]", "result": "Dose-Dependent Effect"}, {"measurement": "inhibition", "setting": "[17]", "result": "inactive"}, {"measurement": "Activity", "setting": "THP-1", "result": "inactive"}, {"measurement": "AUC(0-inf)", "setting": "[18]", "result": 130, "unit": "µg·h/mL"}, {"measurement": "MRT inf", "setting": "[19]", "result": 5.3, "unit": "h"}, {"measurement": "clearance", "setting": "[20]", "result": 0.647, "unit": "mL/min/kg"}, {"measurement": "AUC(0-inf)", "setting": "[21]", "result": 222, "unit": "µg·h/mL"}, {"measurement": "Drug uptake", "setting": "[22]", "result": "Active"}, {"measurement": "Drug uptake", "setting": "[23]", "result": "Active"}, {"measurement": "Drug uptake", "setting": "[24]", "result": "Active"}, {"measurement": "Drug uptake", "setting": "[25]", "result": "Active"}, {"measurement": "Activity", "setting": "Mus musculus [26]", "result": "Active"}, {"measurement": "Activity", "setting": "Mus musculus [27]", "result": "Active"}, {"measurement": "Activity", "setting": "Mus musculus [28]", "result": "Active"}, {"measurement": "Activity", "setting": "Mus musculus [29]", "result": "Active"}, {"measurement": "Activity", "setting": "Mus musculus [30]", "result": "Active"}, {"measurement": "Activity", "setting": "Mus musculus [31]", "result": "Active"}, {"measurement": "Activity", "setting": "Mus musculus [32]", "result": "Active"}, {"measurement": "Activity", "setting": "Mus musculus [33]", "result": "Active"}]}
